Data published in ChEMBL document CHEMBL1201862, “PubChem BioAssay data set” (2004).
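Compound exposure: 48 hours, 5 concentrations, 96-well plates. Abbreviation: GI50, concentration required for 50% inhibition of growth.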 The source made the active and inactive calls. Cut-off read from the data, not from the text of the source: active = GI50 up to about 1.1 µM and inactive = higher.

Key:
Assay in all cases: inhibition of tumour cell growth, NCI panel, 48 h
SF-268 = tested on: SF-268
HCT-116 = tested on: HCT-116
SR = tested on: SR
SF-295 = tested on: SF-295
NCI-H226 = tested on: NCI-H226
DMS-114 = tested on: DMS-114
SN12C = tested on: SN12C
SK-OV-3 = tested on: SK-OV-3
SNB-78 = tested on: SNB-78
OVCAR-3 = tested on: OVCAR-3
SF-539 = tested on: SF-539
XF498 = tested on: XF498
RXF 393 = tested on: RXF 393
M14 = tested on: M14
MOLT-4 = tested on: MOLT-4
UACC-62 = tested on: UACC-62
HT-29 = tested on: HT-29
LXFL 529 = tested on: LXFL 529
IGROV-1 = tested on: IGROV-1
HOP-62 = tested on: HOP-62
K562 = tested on: K562
KM-20L2 = tested on: KM-20L2
U-251 = tested on: U-251
TK-10 = tested on: TK-10
786-0 = tested on: 786-0
NCI-H460 = tested on: NCI-H460
HOP-18 = tested on: HOP-18
SK-MEL-28 = tested on: SK-MEL-28
HCC 2998 = tested on: HCC 2998
DLD-1 = tested on: DLD-1
SNB-75 = tested on: SNB-75
NCI-H23 = tested on: NCI-H23
ACHN = tested on: ACHN
OVCAR-4 = tested on: OVCAR-4
SW-620 = tested on: SW-620
SK-MEL-5 = tested on: SK-MEL-5
Malme-3M = tested on: Malme-3M
NCI-H522 = tested on: NCI-H522
EKVX = tested on: EKVX
A549 = tested on: A549
DMS-273 = tested on: DMS-273
LOX IMVI = tested on: LOX IMVI
OVCAR-5 = tested on: OVCAR-5
RPMI-8226 = tested on: RPMI-8226
HL-60 = tested on: HL-60
KM12 = tested on: KM12
UO-31 = tested on: UO-31
CAKI-1 = tested on: CAKI-1
OVCAR-8 = tested on: OVCAR-8
COLO 205 = tested on: COLO 205
HOP-92 = tested on: HOP-92
A498 = tested on: A498
SNB-19 = tested on: SNB-19
UACC-257 = tested on: UACC-257
HCT-15 = tested on: HCT-15
CCRF-CEM = tested on: CCRF-CEM
SK-MEL-2 = tested on: SK-MEL-2
M19-MEL = tested on: M19-MEL

`NC(=O)c1c([N+](=O)[O-])cc(C(F)(F)F)cc1[N+](=O)[O-]` was tested, and the GI50 (SF-268) was > 100 µM (inactive), the GI50 (HCT-116) was 39 µM (inactive) and the GI50 (SR) was > 100 µM (inactive). For the same compound, the GI50 (SF-295) was > 100 µM (inactive), the GI50 (NCI-H226) was > 100 µM (inactive) and the GI50 (DMS-114) was 26.9 µM (inactive). For the same compound, the GI50 (SN12C) was 52.4 µM (inactive), the GI50 (SK-OV-3) was > 100 µM (inactive) and the GI50 (SNB-78) was > 100 µM (inactive). The GI50 (OVCAR-3) was 24.9 µM (inactive), the GI50 (SF-539) was 45.7 µM (inactive) and the GI50 (XF498) was > 100 µM (inactive). For the same compound, the GI50 (RXF 393) was > 100 µM (inactive), the GI50 (M14) was 76.6 µM (inactive) and the GI50 (MOLT-4) was > 100 µM (inactive). For the same compound, the GI50 (UACC-62) was 35.1 µM (inactive), the GI50 (HT-29) was 41.7 µM (inactive) and the GI50 (LXFL 529) was > 100 µM (inactive). The GI50 (IGROV-1) was > 100 µM (inactive), the GI50 (HOP-62) was > 100 µM (inactive) and the GI50 (K562) was 86.1 µM (inactive). For the same compound, the GI50 (KM-20L2) was 33.3 µM (inactive), the GI50 (U-251) was > 100 µM (inactive) and the GI50 (TK-10) was > 100 µM (inactive). For the same compound, the GI50 (786-0) was > 100 µM (inactive), the GI50 (NCI-H460) was 47.4 µM (inactive) and the GI50 (HOP-18) was > 100 µM (inactive). For the same compound, the GI50 (SK-MEL-28) was > 100 µM (inactive), the GI50 (HCC 2998) was 38.4 µM (inactive) and the GI50 (DLD-1) was > 100 µM (inactive). For the same compound, the GI50 (SNB-75) was > 100 µM (inactive), the GI50 (NCI-H23) was 29.8 µM (inactive) and the GI50 (ACHN) was > 100 µM (inactive). The GI50 (OVCAR-4) was 68.2 µM (inactive), the GI50 (SW-620) was 44.5 µM (inactive) and the GI50 (SK-MEL-5) was 50 µM (inactive). The GI50 (Malme-3M) was 24.4 µM (inactive), the GI50 (NCI-H522) was 21.5 µM (inactive) and the GI50 (EKVX) was > 100 µM (inactive). For the same compound, the GI50 (A549) was 99.5 µM (inactive), the GI50 (DMS-273) was 35.1 µM (inactive) and the GI50 (LOX IMVI) was 51.2 µM (inactive). For the same compound, the GI50 (OVCAR-5) was > 100 µM (inactive), the GI50 (RPMI-8226) was > 100 µM (inactive) and the GI50 (HL-60) was 18 µM (inactive). The GI50 (KM12) was 44 µM (inactive), the GI50 (UO-31) was > 100 µM (inactive) and the GI50 (CAKI-1) was > 100 µM (inactive). For the same compound, the GI50 (OVCAR-8) was > 100 µM (inactive), the GI50 (COLO 205) was 26.1 µM (inactive) and the GI50 (HOP-92) was > 100 µM (inactive). The GI50 (A498) was > 100 µM (inactive), the GI50 (SNB-19) was > 100 µM (inactive) and the GI50 (UACC-257) was 27 µM (inactive).
With `CC(=O)OCSc1ncnc2c1ncn2CN1CCOCC1` the GI50 (SF-268) was 31.3 µM (inactive), the GI50 (HCT-116) was 14.4 µM (inactive) and the GI50 (SR) was 6.14 µM (inactive). The GI50 (SF-295) was 49.9 µM (inactive), the GI50 (HCT-15) was 21.1 µM and the GI50 (NCI-H226) was > 100 µM (inactive). The GI50 (DMS-114) was 6.53 µM (inactive), the GI50 (SN12C) was 60.1 µM (inactive) and the GI50 (SK-OV-3) was 2.01 µM (inactive). The GI50 (SNB-78) was > 100 µM (inactive), the GI50 (OVCAR-3) was 7.23 µM (inactive) and the GI50 (SF-539) was 6.82 µM (inactive). For the same compound, the GI50 (RXF 393) was 14.8 µM (inactive), the GI50 (M14) was 2.25 µM (inactive) and the GI50 (MOLT-4) was 4.12 µM (inactive). For the same compound, the GI50 (UACC-62) was 4.81 µM (inactive), the GI50 (HT-29) was 13.9 µM (inactive) and the GI50 (LXFL 529) was > 100 µM (inactive). For the same compound, the GI50 (IGROV-1) was 52.5 µM (inactive), the GI50 (HOP-62) was 10 µM (inactive) and the GI50 (K562) was 0.841 µM (active). For the same compound, the GI50 (KM-20L2) was 7.59 µM (inactive), the GI50 (U-251) was 47.8 µM (inactive) and the GI50 (TK-10) was 7.05 µM (inactive). The GI50 (786-0) was 7.91 µM (inactive), the GI50 (NCI-H460) was 18.2 µM (inactive) and the GI50 (HOP-18) was 40.1 µM (inactive). For the same compound, the GI50 (SK-MEL-28) was > 100 µM (inactive), the GI50 (HCC 2998) was 6.46 µM (inactive) and the GI50 (DLD-1) was 6.55 µM (inactive). For the same compound, the GI50 (SNB-75) was 13.2 µM (inactive), the GI50 (CCRF-CEM) was 1.98 µM (inactive) and the GI50 (NCI-H23) was 11.9 µM (inactive). The GI50 (ACHN) was 33 µM (inactive), the GI50 (OVCAR-4) was 23 µM (inactive) and the GI50 (SW-620) was 28.8 µM (inactive). The GI50 (SK-MEL-5) was 49.4 µM (inactive), the GI50 (Malme-3M) was 24.9 µM (inactive) and the GI50 (NCI-H522) was 3.27 µM (inactive). For the same compound, the GI50 (SK-MEL-2) was > 100 µM (inactive), the GI50 (EKVX) was > 100 µM (inactive) and the GI50 (A549) was 44.6 µM (inactive). The GI50 (DMS-273) was 5.11 µM (inactive), the GI50 (LOX IMVI) was 2.03 µM (inactive) and the GI50 (OVCAR-5) was 18.5 µM (inactive). The GI50 (RPMI-8226) was 4.44 µM (inactive), the GI50 (HL-60) was 6.22 µM (inactive) and the GI50 (KM12) was 51.1 µM (inactive). For the same compound, the GI50 (UO-31) was 8.38 µM (inactive), the GI50 (M19-MEL) was 59 µM (inactive) and the GI50 (CAKI-1) was 6.37 µM (inactive). The GI50 (OVCAR-8) was 28.9 µM (inactive), the GI50 (COLO 205) was 18.8 µM (inactive) and the GI50 (HOP-92) was 1.08 µM (active). For the same compound, the GI50 (A498) was > 100 µM (inactive), the GI50 (SNB-19) was > 100 µM (inactive) and the GI50 (UACC-257) was 53.5 µM (inactive).
